{
  "source": "patent US20120010229A1",
  "about": "“THERAPEUTIC REGIMENS FOR HEDGEHOG-ASSOCIATED CANCERS” (priority 2010, published 2012)",
  "key": {"D473H SMO mutant": {"target": "T1, D473H SMO mutant (Homo sapiens, UniProt Q99835, D473H)", "T1 construct": "expressed in transfected cells; host or cells: C3H10T1/2 cells (ATCC CCL-226), mouse", "T1 sequence (Q99835 28-787 D473H)": "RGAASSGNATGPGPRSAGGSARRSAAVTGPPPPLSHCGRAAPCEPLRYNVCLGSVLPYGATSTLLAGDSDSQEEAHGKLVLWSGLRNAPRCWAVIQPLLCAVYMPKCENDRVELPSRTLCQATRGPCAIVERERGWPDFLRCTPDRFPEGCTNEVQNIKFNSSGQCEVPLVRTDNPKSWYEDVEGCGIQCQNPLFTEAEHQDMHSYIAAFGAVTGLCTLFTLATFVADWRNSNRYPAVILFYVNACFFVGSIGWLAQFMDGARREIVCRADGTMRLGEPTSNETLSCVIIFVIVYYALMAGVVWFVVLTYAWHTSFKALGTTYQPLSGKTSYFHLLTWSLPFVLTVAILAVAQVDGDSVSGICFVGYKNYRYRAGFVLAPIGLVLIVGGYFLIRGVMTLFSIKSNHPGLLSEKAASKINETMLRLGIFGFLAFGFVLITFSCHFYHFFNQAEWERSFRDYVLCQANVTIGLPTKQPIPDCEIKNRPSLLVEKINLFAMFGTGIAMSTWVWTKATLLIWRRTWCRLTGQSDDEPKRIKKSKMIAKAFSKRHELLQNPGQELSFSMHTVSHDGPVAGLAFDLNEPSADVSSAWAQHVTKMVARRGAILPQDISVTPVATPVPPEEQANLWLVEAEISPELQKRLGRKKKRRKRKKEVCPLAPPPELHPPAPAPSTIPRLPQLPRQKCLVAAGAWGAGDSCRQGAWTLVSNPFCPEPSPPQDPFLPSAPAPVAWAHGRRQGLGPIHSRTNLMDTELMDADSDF", "experiment": "Gli-luciferase reporter assay, C3H10T1/2 cells transfected with D473H SMO", "assay_type": "cell-based, mouse", "protocol": "Wild type human SMO was subcloned into pcDNA3.1 from an expression construct in pCMV6 (Origene #SC122724). D473H SMO was then generated by site-directed mutagenesis using the Stratagene QuikChange kit (Agilent #200519) and sequence verified.\nGli-Luciferase reporter assays were performed as described. (Yauch et al. (2009) Science 326: 572-574) Briefly, C3H10 T1/2 cells (ATCC, #CCL-226) were plated in six-well plates at 1×10 to 5th cells per well in BME (Gibco #21010) with 10% FBS (Hyclone #SH30070.03), 2 mM Glutamine (Gibco #25030) and 50 units penicillin/50 ug streptomycin (Gibco #15140). The next morning, cells were transfected with 400 ng SMO expression construct, 400 ng 8× Gli-Luc, and 200 ng pRL-TK per well with GeneJuice transfection reagent (Novagen #70967). Cells in each well were lifted six hours later and replated into four wells of a 12 well plate and allowed to attach overnight. Medium was then changed to low (0.5%) serum and compounds were added in quadruplicate in a range of concentrations. After a 48 hour incubation, firefly and renilla luciferase were assayed using the Promega Dual-Glo Luciferase Assay System (Promega #E2940) and ratios were used to determine percent of control using Prism graphing software."}, "[1]": {"system": "primary serous ovarian cancer xenograft", "experiment": "Primary serous ovarian cancer xenograft, post carboplatin/taxol", "assay_type": "in vivo, NOD/SCID mice", "protocol": "The effects of IPI-926 were examined following carboplatin/taxol combination chemotherapy in a series of primary ovarian cancer xenograft models.\n1) IPI-926 was given daily, oral at 40 mg/kg\n2) The taxol/carboplatinum was given: • a. Intraperitoneal Carboplatinum 50 mg/kg every 7 days • b. Intraperitoneal Paclitaxel 15 mg/kg every 7 days\nDays of carboplatin/taxol and IPI-926 administration are indicated by the arrows. […] The inhibitory effects of IPI-926 persisted after discontinuing administration of IPI-926. Thus, IPI-926 can be useful as maintenance therapy in ovarian cancer.\nExcess ovarian tumor tissue from patients was collected. Histologically confirmed papillary serous ovarian tumors was disaggregated into purified tumor cells devoid of hematologic components. These cells were suspended in a 1:1 PBS:Matrigel®. A suspension of a specified number of cells was injected subcutaneously (SC) into 6 week old NOD/SCID mice (NOD/LtSz-Prkdcscid/J; 6-8 weeks; Jackson Labs). The mice were housed and maintained in accordance with the institutional guidelines and tumor formation in the injected animals is monitored regularly. Subcutaneous tumors were measured weekly with calipers, and the volume (in mm^3) was determined using the formula: [length (mm)×width (mm)×width (mm)]/2. Animals were euthanized when they become moribund or had evident excessive tumor burden. For continued propagation in mice, the generated tumors were excised and processed as described for the primary tumor samples, depleted of mouse H2 Kd+ cells (MACS beads) and re-injected subcutaneously into new recipient NOD/SCID mice. All tumor cells utilized for these experiments underwent at least 3 passages to ensure the presence of a tumor initiating population. Histology of each generation was evaluated to confirm the maintenance of papillary serous histology.\nFollowing serial transplantation, a minimum of 40 tumor-bearing mice (300-600 mm^3) were treated with vehicle or paclitaxel (15 mg/kg) and carboplatinum (50 mg/kg) (T/C) IP q 7 days. […] Tumor volume and mouse weights were regularly assessed. […]"}, "H1650 xenograft": {"system": "H1650 xenograft", "experiment": "H1650 mutant EGFR non-small cell lung cancer xenograft, post Gefitinib", "assay_type": "in vivo", "protocol": "The efficacy of IPI-926 was evaluated when applied as a maintenance therapy following treatment of a xenograft non-small cell lung cancer model with a tyrosine kinase inhibitor. […] Sonic hedgehog ligand is detected by immunohistochemical staining (IHC) of sections of non-small cell lung cancer (FIG. 8A)."}, "Tolerability in mice": {"experiment": "Tolerability in mice", "assay_type": "in vivo", "settings": "incl. daily 20 mg/kg for greater than 60 days and once-weekly 70 mg/kg", "excerpt": "Studies that are currently underway in pediatric patients and those being planned must consider the permanent changes on cartilage and bone formation observed in young mice as a result of treatment with the HhAntag Smoothened inhibitor (Kimura et al., (2008) Cancer Cell 13: 249-260). The extent to which this on-target toxicity is species specific remains unknown at this time."}, "Pgp": {"target": "Pgp (Homo sapiens, UniProt P08183)", "sequence (P08183 whole entry)": "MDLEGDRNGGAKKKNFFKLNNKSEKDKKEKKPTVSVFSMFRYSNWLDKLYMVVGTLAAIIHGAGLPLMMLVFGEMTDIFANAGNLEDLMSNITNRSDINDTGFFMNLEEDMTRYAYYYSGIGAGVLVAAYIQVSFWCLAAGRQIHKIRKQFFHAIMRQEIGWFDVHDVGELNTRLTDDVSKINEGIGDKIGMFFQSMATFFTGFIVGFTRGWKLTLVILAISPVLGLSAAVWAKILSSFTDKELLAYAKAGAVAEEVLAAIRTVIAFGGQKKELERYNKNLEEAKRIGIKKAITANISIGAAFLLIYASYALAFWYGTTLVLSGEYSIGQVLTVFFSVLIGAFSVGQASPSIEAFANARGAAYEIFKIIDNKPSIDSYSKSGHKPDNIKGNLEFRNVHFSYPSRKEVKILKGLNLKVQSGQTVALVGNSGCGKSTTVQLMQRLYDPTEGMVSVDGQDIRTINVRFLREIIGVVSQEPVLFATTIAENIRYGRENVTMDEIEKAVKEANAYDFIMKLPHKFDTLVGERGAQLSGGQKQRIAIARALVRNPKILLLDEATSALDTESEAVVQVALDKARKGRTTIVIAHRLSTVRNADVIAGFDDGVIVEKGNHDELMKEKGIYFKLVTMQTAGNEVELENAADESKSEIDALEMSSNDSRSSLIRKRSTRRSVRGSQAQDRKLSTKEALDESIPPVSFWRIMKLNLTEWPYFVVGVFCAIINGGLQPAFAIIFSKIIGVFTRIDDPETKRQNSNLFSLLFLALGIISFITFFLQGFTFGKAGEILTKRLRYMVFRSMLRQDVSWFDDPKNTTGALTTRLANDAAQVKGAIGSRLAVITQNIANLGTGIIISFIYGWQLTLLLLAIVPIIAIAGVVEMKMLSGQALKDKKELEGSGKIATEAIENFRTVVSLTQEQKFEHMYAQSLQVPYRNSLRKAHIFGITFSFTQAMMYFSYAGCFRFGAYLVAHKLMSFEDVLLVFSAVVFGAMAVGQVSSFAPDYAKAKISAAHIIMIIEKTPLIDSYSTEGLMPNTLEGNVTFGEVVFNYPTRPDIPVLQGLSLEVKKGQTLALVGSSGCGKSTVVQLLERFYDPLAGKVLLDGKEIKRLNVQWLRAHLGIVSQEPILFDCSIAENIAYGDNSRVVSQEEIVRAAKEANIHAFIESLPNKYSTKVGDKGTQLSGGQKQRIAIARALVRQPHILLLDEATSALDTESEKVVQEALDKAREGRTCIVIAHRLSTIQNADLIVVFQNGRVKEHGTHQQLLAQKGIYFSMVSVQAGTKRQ", "experiment": "Pgp substrate status", "assay_type": "in vitro ADME"}, "Pgp/ABCB1 and BCRP": {"system": "Pgp/ABCB1 and BCRP", "settings": "mouse, not told"}, "[2]": {"system": "KPC mice pancreatic tumors", "settings": "combination of IPI-926 and Gemcitabine; cited from earlier work"}, "[3]": {"system": "human cell lines derived from patients with cancer", "settings": "pancreatic cancer, medulloblastoma, lung cancer, multiple myeloma, leukemia, lymphoma lines; cited from earlier work"}},
  "note": "pIC50: −log10 of the molar value. Entries after “also recorded” stand apart in the source; their conditions may differ.",
  "data": [
    {"smiles": "CC1=C2C[C@H]3[C@@H](CC[C@@H]4C[C@H](NS(C)(=O)=O)CC[C@@]43C)[C@@H]2CC[C@@]2(C1)O[C@@H]1C[C@H](C)CN[C@H]1[C@H]2C", "note": "[IPI-926]", "values": [
      {"measurement": "pIC50", "setting": "D473H SMO mutant", "value": 6.61},
      {"measurement": "percent tumor volume, IPI-926 alone", "setting": "[1]; after 20 days of treatment, vs control treated mice", "value": "smaller percent tumor volume (p<0.007)"},
      {"measurement": "tumor volume after cessation of carboplatin/taxol chemotherapy", "setting": "[1]; carboplatin/taxol followed by IPI-926 40 mg/kg oral, vs followed by vehicle, 40 mg/kg", "value": "prolonged duration of the tumor inhibition; also recorded: smaller percent tumor volume (p<0.02)"},
      {"measurement": "mGLI-1 mRNA in tumor", "setting": "[1]; primary xenograft model of ovarian cancer", "value": "modulate mGLI-1"},
      {"measurement": "tumor volume after cessation of Gefitinib", "setting": "H1650 xenograft; Gefitinib 40 mg/kg orally one week followed by IPI-926 once a day for three weeks", "value": "prolonged duration of the tumor inhibition"},
      {"measurement": "mGLI-1 mRNA expression in lung tumor samples", "setting": "H1650 xenograft; IPI-926 in combination with Gefitinib", "value": "inhibit mGLI-1 mRNA expression"},
      {"measurement": "tolerability", "setting": "Tolerability in mice", "value": "well tolerated"},
      {"measurement": "Pgp substrate", "setting": "Pgp", "value": "Pgp substrate"},
      {"measurement": "Pgp protein expression (IHC)", "setting": "Pgp/ABCB1 and BCRP", "value": "focal increases in Pgp"},
      {"measurement": "expression level of BCRP (Western blot)", "setting": "Pgp/ABCB1 and BCRP", "value": "not significantly increased"},
      {"measurement": "expression level of Pgp (Western blot)", "setting": "Pgp/ABCB1 and BCRP", "value": "not significantly increased"},
      {"measurement": "intratumoral vascular density and gemcitabine concentration", "setting": "[2]", "value": "transient increase in intratumoral vascular density and intratumoral concentration of gemcitabine"},
      {"measurement": "in vitro growth of human cancer cell lines", "setting": "[3]", "value": "inhibit in vitro growth"}
    ]}
  ]
}
